The text below walks through data of patent US8975295B2, “Modulation of zinc levels to improve tissue properties” (Precision Dermatology, Inc., priority 2002, dated 2015).

One series concerns epidermis. Here is the method: (§1) To prepare these solutions, a 1.0 M stock of zinc acetate [ZnAc*(H2O)2] (Mallinkrodt Lot 8740 KPRK) was prepared in sterile phosphate buffered saline (PBS, pH 7.2, Gibco BRL Lot #1111327) by dissolving 109.75 g in 500 mL. To 0.2 ml of Cetaphil® moisturizer base was added 20 μl of solution a, b, c, or d depending upon group (corresponding to Groups “A,” “B,” “C,” or “D”). For group A, added 20 μl PBS alone to 180 μl Cetaphil×84 tubes. For group B, added 20 μl 1.0M Zn to 180 μl Cetaphil×84 tubes. For group C, added 200 μl of 1.0M Zn to 19.8 ml PBS, vortexed, labeled as 0.01M Zn, and added 20 μl of […] to 180 μl Cetaphil×84 tubes. For group D, added 200 μl 0.01M Zn to 19.8 ml PBS, vortexed, labeled as 0.1 mM Zn, and added 20 μl […] to 180 μl Cetaphil×84 tubes. After addition of samples to moisturizer base, the samples were mixed to homogeneity and stored at 4° C. overnight. At N=4 per treatment group, C57 Black Six mice at 8 weeks of age were anesthetized with 3% isoflurane by inhalation, and were shaved at mid-scapular dorsal region. Moisturizer was applied daily at 0.2 cc per day for each group for a 21 day period. After 21 days application, the treated skin segment was harvested en bloc and subdivided into three equal portions: a cranial portion, a left lateral portion, and a right lateral portion. The cranial portion and the left lateral portion were fixed in 10% neutral buffered formalin for 12-16 hours, then rinsed in 70% ethanol and embedded in paraffin. The right lateral portion was snap frozen in OCT medium at the time of harvest and stored at −35° C. until use.
Paraffin-embedded specimens from animals treated in example 1 above were sectioned at 4-6 microns, deparaffinized, and stained with a combination of Verhoeff elastica stain and the Masson trichrome stain for morphological assessment of epidermal thickness. All procedures and analyses were performed by blinded observers. […] Images were analyzed using Image Pro Plus software (Media Cybernetics, Silver Spring, Md.) to determine total cross-sectional area of epidermis over standardized lengths. Mean and standard error were assessed using Statview (Abacus Concepts, Berkeley, Calif.), with comparisons made using ANOVA repeated measures and significance determined at 95% with post-hoc testing using Fisher PLSD or Scheffe F-test.
Paraffin-embedded specimens from animals were treated in Example 1 except that the doses of 10.0 μM Zn^++, 1.0 μM Zn^++, 0.1 μM Zn^++, and the control were applied for 42 days. Specimens were fixed and embedded as above, sectioned at 4-6 microns, deparaffinized, and stained with a combination of Verhoeff elastica stain and the Masson trichrome stain for morphological assessment of epidermal thickness. All procedures and analyses were performed by blinded observers. […] Images were analyzed using Image Pro Plus software (Media Cybernetics, Silver Spring, Md.) to determine total cross-sectional area of epidermis over standardized lengths. Mean and standard error were assessed using Statview (Abacus Concepts, Berkeley, Calif.), with comparisons made using ANOVA repeated measures and significance determined at 95% with post-hoc testing using Fisher PLSD or Scheffe F-test.

Another series deals with murine skin. The conditions noted are these: for local irritation of skin: 21 days topical. How it is done: as §1
All procedures and analyses were performed by blinded observers.

In a further series the test system is elastase. Put plainly: Elastase activity with divalent cations in PBS, read at 405 nm. The following applies: for Elastase activity: 0.005M to 0.01M cation concentration in PBS; for sensitivity of elastase to the cation (comparison of the ions): read every minute for 15 minutes. It counts as biochemical. How it is done:
An assay was run that involved varying concentrations of each divalent cation, ranging from concentrations of 0.005M to 1.0M, in phosphate buffered saline (PBS). The positive control contained no cations, while the negative control contained no elastase. Solutions were read at 405 nm every minute for 15 minutes under controlled conditions. The optical density value of the negative control, which represented background interference, was subtracted from each result. These corrected optical density values from the two trials were averaged.

The subject of another series is hypodermal brown fat. The conditions noted are these: 21 days, base only 456566.375. How it is done: as §1
(§2) All procedures and analyses were performed by blinded observers. […] Images were analyzed using Image Pro Plus software (Media Cybernetics, Silver Spring, Md.) to determine total cross-sectional area of epidermis over standardized lengths. Mean and standard error were assessed using Statview (Abacus Concepts, Berkeley, Calif.), with comparisons made using ANOVA repeated measures and significance determined at 95% with post-hoc testing using Fisher PLSD or Scheffe F-test.

The subject of a further series is deep white fat. The conditions noted are these: 10 μM Zn++, 21 days, lateral abdomen; base only 29375.425; P = 0.0001. Here is the method: as §2

Read-outs that look alike come from different tables or passages of the source.

As to `CC(=O)[O-].CC(=O)[O-].[Zn+2]` [Zn^++, zinc acetate], the “Epidermal area across standardized epidermal lengths, Mean” value turned out to be 6710.000 pixels in the series on epidermis (0.1 μM Zn++ (Z low), 42 days, base only 6728.286); 7724.190 pixels in the series with epidermis (1.0 μM Zn++ (Z med), 42 days, base only 6728.286); 7203.875 pixels with epidermis (10 μM Zn++ (Z high), 42 days, base only 6728.286, P = 0.0014); 16786.125 pixels in the series with epidermis (10.0 μM Zn++ (Z low), 21 days, base only 18221.646); 20799.188 pixels in the series on epidermis (1.0 mM Zn++ (Z med), 21 days, base only 18221.646); 27365.292 pixels in the series with epidermis (100 mM Zn++ (Z high), 21 days, base only 18221.646). Moreover, the “elastin content of skin (black elastic fibers, Verhoeff Elastica stain)” value in the series with murine skin (21 days daily topical, 10 μM, 1.0 mM, 100 mM Zn++ in moisturizer base vs base only) is reported as “dose-dependant increases in the elastin content of skin”. Moreover, the “local irritation of skin” value in the series on murine skin (high dose, 100 mM Zn++ (Z high)) was “epidermal sloughing and irritation occurs”; in the series with murine skin (lower doses (Z low, Z med)), “without local signs of irritation”. Moreover, in the series with elastase, the Elastase activity result is listed as “increased”. Moreover, in the series with elastase (increasing concentration), the “elastase function as the concentration of zinc-containing components increases” value is given as “stabilizing, then destabilizing, then restabilizing elastase function”. For the same compound, in the series with elastase, the “sensitivity of elastase to the cation (comparison of the ions)” value (“sensitivity of elastase to the cation” for short) is “most constantly inhibited”. For the same compound, the “Cross-sectional hypodermal adipose area across standardized epidermal lengths, Mean” value in the series on hypodermal brown fat (10 μM Zn++ (Z low), P=0.0001) was 436809.417 pixels; in the series on hypodermal brown fat (1.0 mM Zn++ (Z med)), 377185.833 pixels; in the series on hypodermal brown fat (100 mM Zn++ (Z high)), 132251.333 pixels. The “Cross-sectional deep adipose area across standardized epidermal lengths, Mean” value in the series with deep white fat is listed as 73011.321 pixels.

For `[Mg+2]` [Mg^2+], in the series with elastase, the Elastase activity result is recorded as “increased” and the “sensitivity of elastase to the cation” value was “least sensitive”.

Take `[Ca+2]` [Ca^2+]: in the series on elastase, the Elastase activity entry is recorded as “increased” and the “sensitivity of elastase to the cation” value is given as “most sensitive”.
